Test results from patent US20230002367A1, “BIFUNCTIONAL COMPOUNDS” (Hoffmann-La Roche Inc., priority 2019, published 2023).

Target: T1, SMARCA2 (Homo sapiens, UniProt P51531)
T1 construct: endogenous in cells
Assay: SMARCA2 HiBiT degradation assay (cellular)
Type: cell-based
Details: for Emax: A549, Emax = amount of residual protein remaining in the cell following compound treatment; for DC50: SMARCA2 HiBiT cells, luminescence readout, 11-point titration from 10 μM, 6 hours or 16 hours, read-out: HiBit A549 SMARCA2 IP

T1 sequence (P51531 whole entry): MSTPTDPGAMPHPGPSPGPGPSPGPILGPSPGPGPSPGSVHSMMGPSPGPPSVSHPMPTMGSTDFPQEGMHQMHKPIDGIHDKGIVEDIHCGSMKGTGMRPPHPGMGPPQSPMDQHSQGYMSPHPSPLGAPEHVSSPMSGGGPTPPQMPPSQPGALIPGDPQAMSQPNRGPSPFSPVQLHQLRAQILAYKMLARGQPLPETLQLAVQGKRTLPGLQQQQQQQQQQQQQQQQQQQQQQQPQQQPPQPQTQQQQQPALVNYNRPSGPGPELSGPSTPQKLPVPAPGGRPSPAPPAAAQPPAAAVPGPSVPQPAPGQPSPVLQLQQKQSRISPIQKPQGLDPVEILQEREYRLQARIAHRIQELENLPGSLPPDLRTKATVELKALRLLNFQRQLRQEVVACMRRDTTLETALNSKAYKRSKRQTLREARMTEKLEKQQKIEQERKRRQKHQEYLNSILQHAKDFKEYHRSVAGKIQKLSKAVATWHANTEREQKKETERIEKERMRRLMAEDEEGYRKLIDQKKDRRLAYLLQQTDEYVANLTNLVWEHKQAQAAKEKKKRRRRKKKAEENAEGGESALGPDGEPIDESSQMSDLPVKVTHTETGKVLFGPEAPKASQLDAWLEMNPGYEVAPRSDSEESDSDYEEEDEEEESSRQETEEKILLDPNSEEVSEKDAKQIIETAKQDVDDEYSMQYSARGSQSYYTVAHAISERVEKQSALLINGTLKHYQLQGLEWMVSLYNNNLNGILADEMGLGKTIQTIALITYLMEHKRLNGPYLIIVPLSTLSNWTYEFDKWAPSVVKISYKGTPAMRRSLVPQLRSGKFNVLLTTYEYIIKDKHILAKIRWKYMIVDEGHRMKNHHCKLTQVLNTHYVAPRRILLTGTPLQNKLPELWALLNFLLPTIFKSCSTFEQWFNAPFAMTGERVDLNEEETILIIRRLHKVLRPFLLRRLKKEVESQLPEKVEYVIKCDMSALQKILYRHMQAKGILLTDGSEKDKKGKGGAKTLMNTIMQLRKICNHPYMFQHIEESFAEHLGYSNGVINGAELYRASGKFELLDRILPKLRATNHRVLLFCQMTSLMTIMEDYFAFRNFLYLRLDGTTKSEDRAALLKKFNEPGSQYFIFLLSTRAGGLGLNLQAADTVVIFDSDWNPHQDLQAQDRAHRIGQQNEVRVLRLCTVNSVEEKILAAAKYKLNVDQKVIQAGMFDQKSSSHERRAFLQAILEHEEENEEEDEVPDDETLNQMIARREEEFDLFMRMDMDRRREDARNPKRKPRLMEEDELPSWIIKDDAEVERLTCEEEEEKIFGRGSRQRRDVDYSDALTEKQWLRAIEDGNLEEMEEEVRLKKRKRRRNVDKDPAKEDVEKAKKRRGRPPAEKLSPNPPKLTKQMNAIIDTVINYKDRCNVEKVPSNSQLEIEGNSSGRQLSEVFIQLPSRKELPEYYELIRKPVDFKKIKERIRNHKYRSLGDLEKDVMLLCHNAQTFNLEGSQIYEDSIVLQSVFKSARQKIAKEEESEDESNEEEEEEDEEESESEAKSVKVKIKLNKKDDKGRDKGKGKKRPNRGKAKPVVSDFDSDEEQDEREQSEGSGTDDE

Emax [%] | DC50 [nM] | SMILES
19 | 1010 | Cc1ncsc1-c1ccc([C@H](C)NC(=O)[C@@H]2C[C@@H](O)CN2C(=O)[C@@H](NC(=O)CCCCCC(=O)N(C)CC(COc2cc(-c3ccccc3O)nnc2N)c2ccccc2)C(C)(C)C)cc1 (mixture of isomers) [Example 21, N′-[3-[3-amino-6-(2-hydroxyphenyl)pyridazin-4-yl]oxy-2-phenyl-propyl]-N′-methyl-N-[rac-(1S)-2,2-dimethyl-1-[rac-(2S,4R)-4-hydroxy-2-[[rac-(1S)-1-[4-(4-methylthiazol-5-yl)phenyl]ethyl]carbamoyl]pyrrolidine-1-carbonyl]propyl]heptanediamide]
27 | 455 | Cc1ncsc1-c1ccc([C@H](C)NC(=O)[C@@H]2C[C@@H](O)CN2C(=O)[C@@H](NC(=O)CCCCCCCCCCC(=O)N(C)CC(COc2cc(-c3ccccc3O)nnc2N)c2ccccc2)C(C)(C)C)cc1 (mixture of isomers) [Example 22, N′-[3-[3-amino-6-(2-hydroxyphenyl)pyridazin-4-yl]oxy-2-phenyl-propyl]-N′-methyl-N-[rac-(1S)-2,2-dimethyl-1-[rac-(2S,4R)-4-hydroxy-2-[[rac-(1S)-1-[4-(4-methylthiazol-5-yl)phenyl]ethyl]carbamoyl]pyrrolidine-1-carbonyl]propyl]dodecanediamide]
38 | 428 | Cc1ncsc1-c1ccc([C@H](C)NC(=O)[C@@H]2C[C@@H](O)CN2C(=O)[C@@H](NC(=O)CCCCCCCCCCCCC(=O)N(C)CC(COc2cc(-c3ccccc3O)nnc2N)c2ccccc2)C(C)(C)C)cc1 (mixture of isomers) [Example 23, N′-[3-[3-amino-6-(2-hydroxyphenyl)pyridazin-4-yl]oxy-2-phenyl-propyl]-N′-methyl-N-[rac-(1S)-2,2-dimethyl-1-[rac-(2S,4R)-4-hydroxy-2-[[rac-(1S)-1-[4-(4-methylthiazol-5-yl)phenyl]ethyl]carbamoyl]pyrrolidine-1-carbonyl]propyl]tetradecanediamide]
42 | 2850 | Cc1ncsc1-c1ccc([C@H](C)NC(=O)[C@@H]2C[C@@H](O)CN2C(=O)[C@@H](NC(=O)CCOCCOCCC(=O)N(C)CC(COc2cc(-c3ccccc3O)nnc2N)c2ccccc2)C(C)(C)C)cc1 (mixture of isomers) [Example 24, rac-(2S,4R)-4-hydroxy-1-[rac-(2S)-2-[3-[2-[3-[[3-[3-amino-6-(2-hydroxyphenyl)pyridazin-4-yl]oxy-2-phenyl-propyl]-methyl-amino]-3-oxo-propoxy]ethoxy]propanoylamino]-3,3-dimethyl-butanoyl]-N-[rac-(1S)-1-[4-(4-methylthiazol-5-yl)phenyl]ethyl]pyrrolidine-2-carboxamide]
19 | 348 | Cc1ncsc1-c1ccc([C@H](C)NC(=O)[C@@H]2C[C@@H](O)CN2C(=O)[C@@H](NC(=O)CCCCCCCCC(=O)N(C)CC(COc2cc(-c3ccccc3O)nnc2N)c2ccccc2)C(C)(C)C)cc1 (mixture of isomers) [Example 25, N′-[3-[3-amino-6-(2-hydroxyphenyl)pyridazin-4-yl]oxy-2-phenyl-propyl]-N′-methyl-N-[rac-(1S)-2,2-dimethyl-1-[rac-(2S,4R)-4-hydroxy-2-[[rac-(1S)-1-[4-(4-methylthiazol-5-yl)phenyl]ethyl]carbamoyl]pyrrolidine-1-carbonyl]propyl]decanediamide]
60 | 1440 | Cc1ncsc1-c1ccc([C@H](C)NC(=O)[C@@H]2C[C@@H](O)CN2C(=O)[C@@H](NC(=O)CCCCCC(=O)N(C)CCCN(C)c2ccc(CCOc3cc(-c4ccccc4O)nnc3N)cc2)C(C)(C)C)cc1 (racemic) [Example 26, N′-[3-[4-[2-[3-amino-6-(2-hydroxyphenyl)pyridazin-4-yl]oxyethyl]-N-methyl-anilino]propyl]-N′-methyl-N-[rac-(1S)-2,2-dimethyl-1-[rac-(2S,4R)-4-hydroxy-2-[[rac-(1S)-1-[4-(4-methylthiazol-5-yl)phenyl]ethyl]carbamoyl]pyrrolidine-1-carbonyl]propyl]heptanediamide]
33 | 330 | Cc1ncsc1-c1ccc([C@H](C)NC(=O)[C@@H]2C[C@@H](O)CN2C(=O)[C@@H](NC(=O)CCCCCCCCCCC(=O)N(C)CCCN(C)c2ccc(CCOc3cc(-c4ccccc4O)nnc3N)cc2)C(C)(C)C)cc1 (racemic) [Example 27, N′-[3-[4-[2-[3-amino-6-(2-hydroxyphenyl)pyridazin-4-yl]oxyethyl]-N-methyl-anilino]propyl]-N′-methyl-N-[rac-(1S)-2,2-dimethyl-1-[rac-(2S,4R)-4-hydroxy-2-[[rac-(1S)-1-[4-(4-methylthiazol-5-yl)phenyl]ethyl]carbamoyl]pyrrolidine-1-carbonyl]propyl]dodecanediamide]
46 | 515 | Cc1ncsc1-c1ccc([C@H](C)NC(=O)[C@@H]2C[C@@H](O)CN2C(=O)[C@@H](NC(=O)CCCCCCCCC(=O)N(C)CCCN(C)c2ccc(CCOc3cc(-c4ccccc4O)nnc3N)cc2)C(C)(C)C)cc1 (racemic) [Example 28, N′-[3-[4-[2-[3-amino-6-(2-hydroxyphenyl)pyridazin-4-yl]oxyethyl]-N-methyl-anilino]propyl]-N′-methyl-N-[rac-(1S)-2,2-dimethyl-1-[rac-(2S,4R)-4-hydroxy-2-[[rac-(1S)-1-[4-(4-methylthiazol-5-yl)phenyl]ethyl]carbamoyl]pyrrolidine-1-carbonyl]propyl]decanediamide]
20 | 119 | Cc1ncsc1-c1ccc([C@H](C)NC(=O)[C@@H]2C[C@@H](O)CN2C(=O)[C@@H](NC(=O)CCCCCC(=O)N2CCN(c3ccc(N4CCCC(Oc5cc(-c6ccccc6O)nnc5N)C4)cc3)CC2)C(C)(C)C)cc1 (mixture of isomers) [Example 32, rac-(2S,4R)-4-hydroxy-1-[rac-(2S)-2-[[7-[4-[4-[3-[3-amino-6-(2-hydroxyphenyl)pyridazin-4-yl]oxy-1-piperidyl]phenyl]piperazin-1-yl]-7-oxo-heptanoyl]amino]-3,3-dimethyl-butanoyl]-N-[rac-(1S)-1-[4-(4-methylthiazol-5-yl)phenyl]ethyl]pyrrolidine-2-carboxamide]
22 | 73 | Cc1ncsc1-c1ccc([C@H](C)NC(=O)[C@@H]2C[C@@H](O)CN2C(=O)[C@@H](NC(=O)CCCCCCCCC(=O)N2CCN(c3ccc(N4CCCC(Oc5cc(-c6ccccc6O)nnc5N)C4)cc3)CC2)C(C)(C)C)cc1 (mixture of isomers) [Example 33, rac-(2S,4R)-4-hydroxy-1-[rac-(2S)-2-[[10-[4-[4-[3-[3-amino-6-(2-hydroxyphenyl)pyridazin-4-yl]oxy-1-piperidyl]phenyl]piperazin-1-yl]-10-oxo-decanoyl]amino]-3,3-dimethyl-butanoyl]-N-[rac-(1S)-1-[4-(4-methylthiazol-5-yl)phenyl]ethyl]pyrrolidine-2-carboxamide]
47 | 1100 | Cc1ncsc1-c1ccc([C@H](C)NC(=O)[C@@H]2C[C@@H](O)CN2C(=O)[C@@H](NC(=O)CCOCCOCCC(=O)N2CCN(c3ccc(N4CCCC(Oc5cc(-c6ccccc6O)nnc5N)C4)cc3)CC2)C(C)(C)C)cc1 (mixture of isomers) [Example 34, rac-(2S,4R)-4-hydroxy-1-[rac-(2S)-2-[3-[2-[3-[4-[4-[3-[3-amino-6-(2-hydroxyphenyl)pyridazin-4-yl]oxy-1-piperidyl]phenyl]piperazin-1-yl]-3-oxo-propoxy]ethoxy]propanoylamino]-3,3-dimethyl-butanoyl]-N-[rac-(1S)-1-[4-(4-methylthiazol-5-yl)phenyl]ethyl]pyrrolidine-2-carboxamide]
